From patent publication US20240174717A1, “AFFINITY AGENTS” (Avitide LLC, priority 2021, published 2024)
Bridges are numbered along the chain shown (N, C = ends). [ ]: non-standard residue; d: D form. (Peg)3 = 12-amino-4,7,10-trioxadodecanoic acid subunits; PEG3 = NCCOCCOCCOCCC(=O)O; code 4 = not defined here; Dap = NC[C@H](N)C(=O)O

How the values were obtained:
exosomes = assay: Filter plate static binding experiment: affinity capture of exosomes by resins; conditions: ligand conjugated to A50 beads, load 1E10 particles/mL in PBST, 60 min
Experimental: A filter plate binding experiment using Durapore Membrane.
Resins were prepared by conjugating ligands to A50 beads.

[1] = Stability of affinity resin towards sodium hydroxide (static binding before and after treatment); assay type: physicochemical; conditions: 0.1 M NaOH for 18 hours, then static binding experiment vs untreated resin
Experimental: Resin comprising SEQ ID No: 43 was incubated with 0.1 M NaOH for 18 hours, washed and a static binding experiment was conducted as described in example 5.

Substance	Ave Capture (%) (exosomes; ligand density 7.4 mg/mL)	Ave Capture (%) (exosomes; ligand density 11.2 mg/mL)	stability of resin towards sodium hydroxide [1]	Ave Capture (%) (exosomes; ligand density 7.7 mg/mL)	Ave Capture (%) (exosomes; ligand density 9.8 mg/mL)
Ac-NYWR5VWFPHAQG2VSTA-(Peg)3K-Amide (Ac-NYWRDVWFPHAQG[Dap]VSTA[(Peg)3]K-NH2; lactam 5-14) [SEQ ID No. 43]	89%	98%	stable towards 0.1 M NaOH	–	–
Ac-NYWR5VWFPHAQG4VSTA-(Peg)3K-Amide (Ac-NYWRDVWFPHAQG[code 4]VSTA[PEG3]K-NH2; lactam 5-14; not fully specified (some residues); printed as Ac-NYWR5VWFPHAQG4VSTA-(Peg)3K-Amide; reading uncertain) [SEQ ID No. 28]	–	–	–	38%	97%
